PubChem BioAssay (NCI)
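Briefly, cells in 96-well plates were exposed to five compound concentrations for 48 h, and endpoints were estimated by linear interpolation. Definition used: TGI = concentration required for complete inhibition of growth.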

Tests used:
Assay in all cases: inhibition of tumour cell growth, NCI panel, 48 h
MDA-MB-231 breast = test system: MDA-MB-231 breast
SF-295 CNS = test system: SF-295 CNS
A549 NSCLC = test system: A549 NSCLC
SW-620 colon = test system: SW-620 colon
786-0 renal = test system: 786-0 renal
EKVX NSCLC = test system: EKVX NSCLC
RPMI-8226 leukemia = test system: RPMI-8226 leukemia
DU-145 prostate = test system: DU-145 prostate
MDA-MB-435 = test system: MDA-MB-435
OVCAR-5 ovarian = test system: OVCAR-5 ovarian
CAKI-1 renal = test system: CAKI-1 renal

| SMILES | TGI (MDA-MB-231 breast) [µM] | TGI (SF-295 CNS) [µM] | TGI (A549 NSCLC) [µM] | TGI (SW-620 colon) [µM] | TGI (786-0 renal) [µM] | TGI (EKVX NSCLC) [µM] | TGI (RPMI-8226 leukemia) [µM] | TGI (DU-145 prostate) [µM] | TGI (MDA-MB-435) [µM] | TGI (OVCAR-5 ovarian) [µM] | TGI (CAKI-1 renal) [µM] |
| --- | --- | --- | --- | --- | --- | --- | --- | --- | --- | --- | --- |
| COc1cc(C2SCC(=O)N2c2ccc(Cl)c(Cl)c2)cc(OC)c1OC (configuration not stated) | > 100 | > 100 | > 100 | > 100 | > 100 | > 87.9 | > 78.6 | > 100 | 34 | 98.3 | > 100 |
| CC(=O)Nc1ccc2cc(C)c(=O)[nH]c2n1 | > 100 | > 100 | > 100 | > 100 | > 100 | > 100 | > 100 | > 100 | > 100 | > 100 | > 100 |
| CC(C)C[C@H]1[C@@H](OCc2ccccc2)COS(=O)N1[C@H](C)c1ccccc1 (some centres not stated) | 65.2 | 34.3 | > 100 | > 100 | 36.1 | > 100 | 58.4 | > 100 | > 100 | > 100 | 95.6 |
| CC(C)(C)c1cc(C(=O)/C=C/C=C/c2ccccc2)cc(C(C)(C)C)c1O | 49 | > 100 | 47.3 | 41.4 | 36.1 | > 100 | 29.9 | 98.1 | > 70.4 | > 87 | > 100 |
| CC(C)(C)c1cc(C(CO)OCCOCCO)cc(C(C)(C)C)c1O (configuration not stated) | > 100 | > 100 | > 100 | > 100 | > 100 | > 100 | > 100 | > 100 | > 100 | > 100 | > 100 |
| S=c1[nH]n2c(COc3cccc(OCc4nnc5sc(=S)[nH]n45)c3)nnc2s1 | > 100 | > 100 | > 100 | > 100 | > 100 | > 100 | > 100 | > 100 | > 100 | > 100 | > 100 |
| O=C(NS(=O)(=O)OCC(Cl)(Cl)Cl)SCCC(F)(F)C(F)(F)C(F)(F)C(F)(F)C(F)(F)C(F)(F)F | 61.9 | 38.9 | 94.6 | 38.3 | > 100 | 35.5 | 40.5 | > 100 | 55 | 34.6 | 92.7 |
